The test system of the test is 6-OHDA-lesioned rats. Briefly: Assessment of rotational (locomotor) activity in 6-OHDA-lesioned rats. Type of test: in vivo, Male Wistar rats. The note with it: p.o., with benserazide 10 mg/kg, 63.4 μmole/kg. The method, then: • Animals Male Wistar rats, 200-225 g on arrival, Harlan Ltd. • Housing Animals were housed in groups of 4 on a 12-h light-dark cycle with an environment of 50% humidity and temperature of 21±2° C. in accordance with Animals (Scientific Procedures) Act […] Home Office regulations. Rats had access to food and water ad libitum. • Licence All animals used in this study were treated in accordance with the UK 1986 Animals (Scientific Procedures Act). Procedure • Surgery Male Wistar rats were anaesthetized in an induction chamber using isofluorane (1-2% in 95% O2, 5% CO2 carrier gas), placed in a Kopf stereotaxic frame and anaesthesia maintained with 0.5-1.0% isofluorane. An incision was made in the scalp and a 0.8-mm-diameter hole made in the skull at coordinates AP: −2.6 mm, L: +2.0 mm (all co-ordinated measured from bregma). The neurotoxin 6-hydroxydopamine (6-OHDA) (8 μg free base in 4 μL of 0.9% saline containing 0.05% ascorbic acid) was injected into the left median forebrain bundle at a constant rate over 4 min (1 μl/min) using a 10-μL Hamilton syringe lowered to −8 mm below the dura. The needle remained in place for a further 4 min before being removed, and the wound cleaned and sutured. Carprofen (5 mg/kg subcutaneously) was administered for pain relief and a rehydration treatment of 5% glucose in 0.9% saline (up to 5 ml ip) was given prior to recovery from the anaesthetic. Behavioural Assessment Confirmation of the Lesion • At least 2 weeks following surgery, animals were examined for rotational behaviour (see below) in response to the administration of apomorphine hydrochloride (0.5 mg/kg s.c. in 0.9% saline containing 0.05% ascorbic acid) to evaluate the extent of the lesion. […]. Animals were placed in rotometers (Med Associates) for up to 30 min to measure basal activity. They were then treated with benserazide (10 mg/kg) concomitantly with test compound or L-DOPA (63.4 μmole/kg ip or po). Rotation behaviour was assessed for up to 6 hours after test drug/L-DOPA administration. Animals were typically treated with a series of compounds for comparative purposes. Each treatment was administered at least 1 day apart. Data Analysis • The number of rotations measured per 10 minutes over the 6 hour period was determined. Animals were considered active if they turned >10 turns per 10 minutes.

As for `CNC(=O)Oc1cc(C[C@H](NC(=O)[C@@H](N)Cc2ccc(O)c(O)c2)C(=O)OC)ccc1O.Cl` [Example 8, (S)-2-(3,4-Dihydroxy-phenyl)-1-[(S)-2-(4-hydroxy-3-methylcarbamoyloxy-phenyl)-1-methoxycarbonyl-ethylcarbamoyl]-ethyl-ammonium chloride], the “AUC (locomotor activity)” value is listed as 928 (±161) rotations per 220 min, the “locomotor activity compared to baseline” value is listed as “increased locomotor activity compared to baseline” and the peak locomotor activity is given as 92 (±20) rotations per 10 min. Besides, the “duration of locomotor activity” value (active = >10 turns per 10 minutes) is given as 142 (±7) min.

The record behind these values is patent US8258097B2, “Amino acid derivatives” (Proximagen Ltd., priority 2007, dated 2012).
